{
  "source": "patent US20240192195A1",
  "about": "“A MULTIOMIC APPROACH TO MODELING OF GENE REGULATORY NETWORKS IN MULTIPLE MYELOMA” (H. LEE MOFFITT CANCER CENTER AND RESEARCH INSTITUTE, INC., priority 2021, published 2024)",
  "system": "multiple myeloma",
  "assay": "Clinical response to Selinexor-based regimens after anti-CD38 monoclonal antibody in the immediate prior line (STOMP, XPORT-MM-028)",
  "format": "in vivo, human",
  "conditions": "Selinexor-based regimen",
  "data": [
    {"molecule": "O=C(/C=C\\n1cnc(-c2cc(C(F)(F)F)cc(C(F)(F)F)c2)n1)NNc1cnccn1", "note": "[Selinexor]", "values": [
      {"measurement": "PFS, anti-CD38 mAb in immediate prior line versus not", "setting": "STOMP and XPORT-MM-028 trials", "value": "statistically significant improvement"},
      {"measurement": "VGPR rate, anti-CD38 mAb in immediate prior line versus not", "setting": "STOMP trial (xpd and xkd arms)", "value": "higher"},
      {"measurement": "ORR and CBR, anti-CD38 mAb in immediate prior line versus not", "setting": "XPORT-MM-028 trial (xvd)", "value": "considerably higher"}
    ]}
  ]
}
